Values after ≈ are worked out from the molar mass of the structure shown.
How the values were obtained:
[1] = molecular target: Phosphatidylinositol 4,5-bisphosphate 3-kinase catalytic subunit beta isoform (Homo sapiens, UniProt P42338); assay: Inhibition of recombinant human N-terminal Myr signal and C-terminal Flag-tagged PI3K p110beta expressed in rat Rat1 cells; format: cell-based
Homo sapiens [2] = species: Homo sapiens; assay: Selectivity index, ratio of IC50 for mTOR in human MCF7 cells to Ki for recombinant human full-length PI3K p110alpha/p85alpha; format: cell-based
[3] = Kinetic solubility of compound; format: physicochemical; conditions: read-out: Kinetic_solubility
[4] = Volume of distribution at steady state in Wistar Han rat at 2 mg/kg, iv; format: ADME, organism-based; conditions: in vivo, read-out: Vdss
[5] = molecular target: PI3-kinase p110-delta/p85-alpha (Homo sapiens, UniProt O00329); assay: Inhibition of recombinant human PI3K p110delta/p85alpha using phosphatidylinositol 4,5-bisphosphate as substrate preincubated for 15 mins followed by addition of ATP and measured after 30 mins by fluorescence polarisation assay; format: protein-complex assay
[6] = Tmax in Wistar Han rat at 10 mg/kg, po; format: ADME, organism-based; conditions: in vivo
[7] = AUC (0 to t) in Wistar Han rat at 2 mg/kg, iv; format: ADME, organism-based; parameters: dose 2 mg/kg; conditions: in vivo
[8] = Apparent intrinsic clearance in human liver microsomes; format: ADME, Microsome; conditions: read-out: CLH(app)
[9] = molecular target: Serine/threonine-protein kinase mTOR (Homo sapiens, UniProt P42345); assay: Inhibition of mTOR in TSC1 null human MCF7 cells assessed as decrease in p70S6K phosphorylation at Thr389 residue incubated for 2 hrs by ELISA; format: cell-based
[10] = Kinetic solubility of compound at pH 7.4 after 24 hrs by LC/MS/MS analysis; format: physicochemical; conditions: buffer, read-out: Kinetic_solubility
Homo sapiens [11] = species: Homo sapiens; assay: Selectivity index, ratio of IC50 for recombinant human N-terminal Myr signal and C-terminal Flag-tagged PI3K p110delta to Ki for recombinant human full-length PI3K p110alpha/p85alpha
[12] = molecular target: Phosphatidylinositol 4,5-bisphosphate 3-kinase catalytic subunit alpha isoform (Homo sapiens, UniProt P42336); assay: Inhibition of recombinant human N-terminal Myr signal and C-terminal Flag-tagged PI3K p110alpha expressed in rat Rat1 cells; format: cell-based
[13] = AUC (0 to t) in Wistar Han rat at 10 mg/kg, po; format: ADME, organism-based; parameters: dose 10 mg/kg; conditions: in vivo
[14] = Plasma clearance in Wistar Han rat at 2 mg/kg, iv; format: ADME, organism-based
PI3K p110 beta/p85 alpha = PI3K p110 beta/p85 alpha (Homo sapiens, UniProt P42338); assay: Inhibition of recombinant human PI3K p110beta/p85alpha using phosphatidylinositol 4,5-bisphosphate as substrate preincubated for 15 mins followed by addition of ATP and measured after 30 mins by fluorescence polarisation assay; format: protein-complex assay
[15] = Inhibition of PI3K p110alpha […] mutant in human MCF7 cells assessed as reduction in phosphorylation of Akt at T308 residue incubated for 2 hrs by ELISA; format: cell-based; conditions: MCF7, 2 h
[16] = molecular target: T1, Phosphatidylinositol 4,5-bisphosphate 3-kinase catalytic subunit delta isoform (Homo sapiens, UniProt O00329); assay: Inhibition of recombinant human N-terminal Myr signal and C-terminal Flag-tagged PI3K p110delta expressed in rat Rat1 cells; format: cell-based
T1 sequence (O00329 whole entry): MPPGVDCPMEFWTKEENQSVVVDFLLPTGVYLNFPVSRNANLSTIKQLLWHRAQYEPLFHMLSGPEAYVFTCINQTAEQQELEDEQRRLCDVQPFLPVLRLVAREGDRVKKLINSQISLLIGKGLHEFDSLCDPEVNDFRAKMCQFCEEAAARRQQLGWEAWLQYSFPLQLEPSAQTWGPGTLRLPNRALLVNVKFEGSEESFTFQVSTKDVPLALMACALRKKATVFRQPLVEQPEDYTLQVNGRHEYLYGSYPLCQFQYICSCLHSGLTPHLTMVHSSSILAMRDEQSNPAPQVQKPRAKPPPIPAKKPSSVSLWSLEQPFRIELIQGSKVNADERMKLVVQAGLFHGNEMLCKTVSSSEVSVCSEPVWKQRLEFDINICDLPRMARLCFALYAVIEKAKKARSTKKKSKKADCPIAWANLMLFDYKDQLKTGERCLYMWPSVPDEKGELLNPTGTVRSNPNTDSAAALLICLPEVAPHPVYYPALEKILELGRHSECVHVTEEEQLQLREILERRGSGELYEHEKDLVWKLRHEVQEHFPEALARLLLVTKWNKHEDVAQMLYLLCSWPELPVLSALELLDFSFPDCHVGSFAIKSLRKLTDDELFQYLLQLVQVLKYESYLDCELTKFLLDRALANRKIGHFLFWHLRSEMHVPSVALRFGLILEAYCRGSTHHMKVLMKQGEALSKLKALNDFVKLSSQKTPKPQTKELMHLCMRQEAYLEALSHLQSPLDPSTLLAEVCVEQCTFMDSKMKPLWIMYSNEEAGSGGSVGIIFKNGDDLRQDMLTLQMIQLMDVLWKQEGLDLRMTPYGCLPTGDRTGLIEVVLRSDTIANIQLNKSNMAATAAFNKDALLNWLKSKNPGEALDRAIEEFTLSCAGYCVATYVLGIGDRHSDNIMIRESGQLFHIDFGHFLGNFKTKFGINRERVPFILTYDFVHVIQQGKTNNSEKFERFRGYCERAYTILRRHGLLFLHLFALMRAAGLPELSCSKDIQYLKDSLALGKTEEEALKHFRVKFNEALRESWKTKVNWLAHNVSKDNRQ

[17] = Thermodynamic solubility of compound at pH 7.4; format: physicochemical; conditions: buffer, read-out: Therm_solubility
[18] = Oral bioavailability in Wistar Han rat at 10 mg/kg; format: ADME, organism-based; conditions: in vivo
Rat1 [19] = assay: Selectivity index, ratio of IC50 for recombinant human N-terminal Myr signal and C-terminal Flag-tagged PI3K p110beta to IC50 for recombinant human N-terminal Myr signal and C-terminal Flag-tagged PI3K p110alpha expressed in rat Rat1 cells; format: cell-based
[20] = Passive permeability of compound in RRCK cells; format: ADME, cell-based, Canis lupus familiaris, MDCKII-LE; conditions: dog, MDCK; read-out: permeability
[21] = Distribution coefficient, logD of compound at pH 7.4; format: physicochemical; conditions: octanol/water
MCF7 = assay: Antiproliferation activity against human MCF7 cells assessed as reduction in cell viability incubated for 7 days by Cell-titer Glo reagent based assay; format: functional; conditions: MCF7, 168 h
Homo sapiens [22] = species: Homo sapiens; assay: Selectivity index, ratio of IC50 for recombinant human N-terminal Myr signal and C-terminal Flag-tagged PI3K p110beta to Ki for recombinant human full-length PI3K p110alpha/p85alpha
Rat1 [23] = assay: Selectivity index, ratio of IC50 for recombinant human N-terminal Myr signal and C-terminal Flag-tagged PI3K p110delta to IC50 for recombinant human N-terminal Myr signal and C-terminal Flag-tagged PI3K p110alpha expressed in rat Rat1 cells; format: cell-based
[24] = Inhibition of PI3K p110alpha H1047R mutant in human T47D cells assessed as reduction in phosphorylation of Akt at T308 residue incubated for 2 hrs by ELISA; format: cell-based
T47D = assay: Antiproliferation activity against human T47D cells assessed as reduction in cell viability incubated for 7 days by Cell-titer Glo reagent based assay; format: functional; conditions: 168 h
[25] = Half life in Wistar Han rat at 2 mg/kg, iv; format: ADME, organism-based; conditions: in vivo
[26] = molecular target: PI3-kinase p110-alpha/p85-alpha (Homo sapiens, UniProt P42336); assay: Inhibition of recombinant human full-length PI3K p110alpha/p85alpha (322 to 600) expressed in baculovirus infected Sf21 cells using phosphatidylinositol 4,5-bisphosphate as substrate preincubated for 15 mins followed by addition of ATP and measured after 30 mins by fluorescence polarisation assay
[27] = Cmax in Wistar Han rat at 10 mg/kg, po; format: ADME, organism-based; parameters: route oral, dose 10 mg/kg; conditions: in vivo
Homo sapiens [28] = species: Homo sapiens; assay: Selectivity index, ratio of Ki for recombinant human PI3K p110beta/p85alpha to Ki for recombinant human full-length PI3K p110alpha/p85alpha (322 to 600) using phosphatidylinositol 4,5-bisphosphate as substrate
Homo sapiens [29] = species: Homo sapiens; assay: Selectivity index, ratio of Ki for recombinant human PI3K p110delta/p85alpha to Ki for recombinant human full-length PI3K p110alpha/p85alpha (322 to 600) using phosphatidylinositol 4,5-bisphosphate as substrate

PI3K p110 beta/p85 alpha, sequence (P27986 whole entry): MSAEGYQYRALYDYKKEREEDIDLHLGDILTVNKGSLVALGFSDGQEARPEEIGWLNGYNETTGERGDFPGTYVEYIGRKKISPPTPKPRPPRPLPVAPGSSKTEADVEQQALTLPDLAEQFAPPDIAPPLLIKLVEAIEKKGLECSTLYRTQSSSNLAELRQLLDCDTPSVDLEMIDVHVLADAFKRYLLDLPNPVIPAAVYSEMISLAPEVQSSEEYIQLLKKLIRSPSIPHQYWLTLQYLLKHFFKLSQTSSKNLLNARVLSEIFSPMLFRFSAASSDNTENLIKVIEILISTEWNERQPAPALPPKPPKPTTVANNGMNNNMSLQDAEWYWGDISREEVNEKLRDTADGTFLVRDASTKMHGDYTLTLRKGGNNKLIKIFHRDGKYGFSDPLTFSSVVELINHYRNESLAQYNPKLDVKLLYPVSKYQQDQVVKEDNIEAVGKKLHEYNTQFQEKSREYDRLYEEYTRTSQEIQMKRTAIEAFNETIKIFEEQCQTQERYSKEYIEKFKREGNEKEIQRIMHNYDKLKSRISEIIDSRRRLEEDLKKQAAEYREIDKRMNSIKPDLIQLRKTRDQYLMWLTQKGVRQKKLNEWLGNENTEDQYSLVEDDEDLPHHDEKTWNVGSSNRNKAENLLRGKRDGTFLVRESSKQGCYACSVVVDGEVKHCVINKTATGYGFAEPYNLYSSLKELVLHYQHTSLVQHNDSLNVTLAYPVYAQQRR
PI3K p110 beta/p85 alpha, sequence (P42338 whole entry): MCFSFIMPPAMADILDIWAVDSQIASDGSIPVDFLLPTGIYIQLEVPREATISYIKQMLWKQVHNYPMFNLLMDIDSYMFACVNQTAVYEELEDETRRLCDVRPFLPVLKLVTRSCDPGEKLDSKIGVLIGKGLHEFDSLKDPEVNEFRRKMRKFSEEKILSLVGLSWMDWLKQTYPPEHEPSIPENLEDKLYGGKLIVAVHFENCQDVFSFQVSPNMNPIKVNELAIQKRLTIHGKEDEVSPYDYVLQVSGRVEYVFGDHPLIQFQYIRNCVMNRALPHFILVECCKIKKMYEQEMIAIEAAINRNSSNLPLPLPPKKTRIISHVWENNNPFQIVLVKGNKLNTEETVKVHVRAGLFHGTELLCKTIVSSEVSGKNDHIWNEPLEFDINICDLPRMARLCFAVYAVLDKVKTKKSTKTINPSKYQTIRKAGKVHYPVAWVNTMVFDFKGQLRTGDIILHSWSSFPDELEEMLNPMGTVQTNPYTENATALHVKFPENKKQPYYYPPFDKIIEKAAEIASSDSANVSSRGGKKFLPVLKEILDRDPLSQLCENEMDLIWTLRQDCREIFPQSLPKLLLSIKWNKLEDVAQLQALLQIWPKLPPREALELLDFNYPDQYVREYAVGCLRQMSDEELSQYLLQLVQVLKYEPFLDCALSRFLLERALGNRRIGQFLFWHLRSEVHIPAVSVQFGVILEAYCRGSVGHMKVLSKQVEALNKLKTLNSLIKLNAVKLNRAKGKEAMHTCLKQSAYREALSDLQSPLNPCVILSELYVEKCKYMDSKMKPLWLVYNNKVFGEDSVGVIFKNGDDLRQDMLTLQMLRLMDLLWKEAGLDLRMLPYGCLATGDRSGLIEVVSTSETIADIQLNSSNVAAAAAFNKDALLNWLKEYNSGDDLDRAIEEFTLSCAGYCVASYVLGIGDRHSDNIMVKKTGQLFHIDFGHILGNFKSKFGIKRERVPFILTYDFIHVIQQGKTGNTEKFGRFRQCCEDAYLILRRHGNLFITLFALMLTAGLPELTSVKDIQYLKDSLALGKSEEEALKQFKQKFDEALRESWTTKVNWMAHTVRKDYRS
PI3-kinase p110-alpha/p85-alpha, sequence (P27986 whole entry): as the sequence (P27986 whole entry) above
PI3-kinase p110-alpha/p85-alpha, sequence (P42336 whole entry): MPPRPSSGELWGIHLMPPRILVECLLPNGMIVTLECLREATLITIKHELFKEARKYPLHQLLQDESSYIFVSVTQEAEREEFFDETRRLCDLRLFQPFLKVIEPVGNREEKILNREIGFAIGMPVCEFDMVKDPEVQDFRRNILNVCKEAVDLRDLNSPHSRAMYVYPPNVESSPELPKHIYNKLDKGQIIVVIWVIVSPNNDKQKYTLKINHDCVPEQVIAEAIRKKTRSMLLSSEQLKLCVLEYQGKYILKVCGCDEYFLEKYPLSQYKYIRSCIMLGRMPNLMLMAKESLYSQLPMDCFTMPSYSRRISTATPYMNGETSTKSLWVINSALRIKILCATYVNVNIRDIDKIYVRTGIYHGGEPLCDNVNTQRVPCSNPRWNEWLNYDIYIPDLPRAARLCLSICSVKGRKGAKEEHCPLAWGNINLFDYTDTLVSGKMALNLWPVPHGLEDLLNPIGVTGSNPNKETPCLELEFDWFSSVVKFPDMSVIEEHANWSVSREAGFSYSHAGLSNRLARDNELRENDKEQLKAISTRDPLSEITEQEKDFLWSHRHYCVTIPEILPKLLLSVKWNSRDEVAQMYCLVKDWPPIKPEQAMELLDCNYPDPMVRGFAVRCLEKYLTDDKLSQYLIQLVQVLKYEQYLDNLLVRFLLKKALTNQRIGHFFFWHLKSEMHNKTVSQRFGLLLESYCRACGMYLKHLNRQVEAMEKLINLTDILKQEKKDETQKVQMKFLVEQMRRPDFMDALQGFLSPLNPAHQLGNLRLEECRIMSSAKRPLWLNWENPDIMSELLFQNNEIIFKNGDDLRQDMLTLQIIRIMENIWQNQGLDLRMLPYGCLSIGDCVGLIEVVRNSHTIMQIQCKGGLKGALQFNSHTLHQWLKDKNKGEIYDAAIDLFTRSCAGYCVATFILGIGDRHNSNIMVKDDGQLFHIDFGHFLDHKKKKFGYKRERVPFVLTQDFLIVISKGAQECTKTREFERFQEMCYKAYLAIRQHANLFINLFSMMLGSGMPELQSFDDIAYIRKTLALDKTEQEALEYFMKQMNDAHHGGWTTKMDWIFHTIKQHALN
PI3-kinase p110-delta/p85-alpha, sequence (P27986 whole entry, one chain of several): as the sequence (P27986 whole entry) above
Phosphatidylinositol 4,5-bisphosphate 3-kinase catalytic subunit alpha isoform, sequence (P42336 whole entry, canonical isoform): as the sequence (P42336 whole entry) above
Phosphatidylinositol 4,5-bisphosphate 3-kinase catalytic subunit beta isoform, sequence (P42338 whole entry, canonical isoform): as the sequence (P42338 whole entry) above

IC50 [1] [nM]	solubility kinetic [3] [µM]	Ki [5] [nM]	microsomal CLint [8] [µL/min/mg]	IC50 [12] [nM]	Ki (PI3K p110 beta/p85 alpha) [nM]	IC50 [16] [nM]	Papp [20] [nm/s]	logD [21]	Ki [26] [nM]	SMILES	Ratio IC50 (Rat1 [19])	Ratio IC50 (Rat1 [23])	further results
360	2.5 (≈ 1.25 µg/mL)	< 0.28	< 18	18	2	160	130	1.9	< 0.018	Nc1ncc(-c2nc(N3CCOCC3)nc(N[C@@]3(CO)CCN(C(=O)OCC(F)F)C3)c2F)cn1	20	9	Selectivity Index (Homo sapiens [2]): 83; Vd [4]: 3 L/kg; Tmax [6]: 1 h; AUC(0-t) [7]: 1.1 µg·h/mL; IC50 [9]: 1500 nM; solubility kinetic at 24 h [10]: 1.3 µg/mL (≈ 2.61 µM); Selectivity Index (Homo sapiens [11]): 9; AUC(0-t) [13]: 1.4 µg·h/mL; clearance [14]: 1.8 L/h/kg; IC50 [15]: 7.8 nM; solubility thermodynamic [17]: 6.2 µg/mL (≈ 12.4 µM); bioavailability [18]: 25%; IC50 (MCF7): 62 nM; Selectivity Index (Homo sapiens [22]): 20; IC50 [24]: 8.7 nM; IC50 (T47D): 32 nM; half-life [25]: 3.6 h; Cmax [27]: 0.33 µg/mL
640	97 (≈ 46.8 µg/mL)	0.46	160	6.8	25	92	210	3.7	< 0.018	CC(C)(C)OC(=O)N1CC[C@](C)(N2CCc3c(-c4cnc(N)nc4)nc(N4CCOCC4)nc32)C1	94	14	Ratio Ki (Homo sapiens [28]): > 1390; Ratio Ki (Homo sapiens [29]): > 26

From ChEMBL document CHEMBL4706640, “Structure-Based Drug Design and Synthesis of PI3Kα-Selective Inhibitor (PF-06843195)” (J Med Chem, 2021)
